The values below come from patent publication US11505575B2, “Cyclic polypeptides for PCSK9 inhibition” (Merck Sharp & Dohme LLC, priority 2018, dated 2022).

*1 amine or outer side, *2 acyl side, *3 side chain or, on linkers, in order; H or OH if unused. Where a SMILES comes first, the peptide text is derived from it. Bridges are numbered along the chain shown (N, C = ends). [ ]: non-standard residue; d: D form. Ala(benzothiazol-2-yl) = N[C@@H](Cc1nc2ccccc2s1)C(=O)O; Phe(4-guanidino) = N=C(N)Nc1ccc(C[C@H](N)C(=O)O)cc1; X4 = O=C([C@H](Cc1cc2cc(F)ccc2[nH]1)N[*:1])[*:2]; Trp(5-F) = N[C@@H](Cc1c[nH]c2ccc(F)cc12)C(=O)O; Trp(7-aza) = N[C@@H](Cc1c[nH]c2ncccc12)C(=O)O; X7 = O=C([C@H](Cc1cc[nH]c1)N[*:1])[*:2]; mXylylene = c1cc(C[*:1])cc(C[*:2])c1; Cha = N[C@@H](CC1CCCCC1)C(=O)O; Agp = N=C(N)NC[C@H](N)C(=O)O; Tle = CC(C)(C)[C@H](N)C(=O)O; αMeV = CC(C)[C@](C)(N)C(=O)O; hLys = NCCCCC[C@H](N)C(=O)O; αMeP = C[C@@]1(C(=O)O)CCCN1; hSer = N[C@@H](CCO)C(=O)O; Nva = CCC[C@H](N)C(=O)O; Aib = CC(C)(N)C(=O)O; Mpa = O=C(O)CCS

Chain of human PCSK9 / human LDLR EGFa domain interaction (Q8NBP7 153-692): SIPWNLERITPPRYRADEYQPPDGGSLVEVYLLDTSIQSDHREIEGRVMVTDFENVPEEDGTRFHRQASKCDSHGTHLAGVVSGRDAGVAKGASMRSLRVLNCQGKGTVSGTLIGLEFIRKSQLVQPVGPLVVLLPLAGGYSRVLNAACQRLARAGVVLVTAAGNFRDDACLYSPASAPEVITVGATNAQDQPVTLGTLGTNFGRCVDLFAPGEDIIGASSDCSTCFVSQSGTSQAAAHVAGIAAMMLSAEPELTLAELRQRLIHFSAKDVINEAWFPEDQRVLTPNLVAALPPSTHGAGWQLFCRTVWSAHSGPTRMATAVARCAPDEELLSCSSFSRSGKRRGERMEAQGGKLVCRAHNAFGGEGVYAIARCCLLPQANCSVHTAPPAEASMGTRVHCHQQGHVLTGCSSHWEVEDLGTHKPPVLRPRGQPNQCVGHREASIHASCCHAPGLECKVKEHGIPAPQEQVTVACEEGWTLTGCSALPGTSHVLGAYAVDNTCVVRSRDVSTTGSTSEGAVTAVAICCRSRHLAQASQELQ
Chain of human PCSK9 / human LDLR EGFa domain interaction (Q8NBP7 31-152 partner limits assumed): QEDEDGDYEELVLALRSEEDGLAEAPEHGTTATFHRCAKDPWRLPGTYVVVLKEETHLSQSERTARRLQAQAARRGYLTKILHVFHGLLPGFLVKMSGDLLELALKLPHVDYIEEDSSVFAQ

For the assay, the target named is human PCSK9 / human LDLR EGFa domain interaction (Homo sapiens, UniProt Q8NBP7). Briefly: TR-FRET assay of inhibition of the PCSK9-LDLR protein-protein interaction. It is filed as binding. The note with it: 20 nM biotinylated human PCSK9 + 20 nM his-tagged human LDLR EGFa domain, 2 hours room temperature. As to the method:
A time-resolved fluorescence resonance energy (TR-FRET) assay was used to measure inhibition of the PCSK9-LDLR protein-protein interaction. Briefly, 20 nM avitag-biotinylated human PCSK9 was incubated with 20 nM his-tagged human LDLR EGFa domain in the presence of 5 nM LANCE Ulight Streptavidin (Perkin Elmer) and 5 nM europium-Anti-6×His (Perkin Elmer) for 2 hours covered at room temperature in buffer containing 50 mM HEPES, 150 mM NaCl, 5 mM CaCl2, 0.01% BSA and 0.01% Surfactant P20. Compounds were tested in dose-response and concentrations giving half-maximal inhibition calculated using a 4-parameter fit equation.
(In TR-FRET formats the signal depends on donor and acceptor labels being close together.)
As to `CCC[C@@H]1NC(=O)[C@H](Cc2c[nH]c3ncccc23)NC(=O)[C@H]([C@@H](C)O)NC(=O)[C@H](CCCCCN)NC(=O)[C@H](Cc2ccc(O)cc2)NC(=O)[C@H](C(C)(C)C)NC(=O)CCSCc2cccc(c2)CSC[C@@H](C(N)=O)NC(=O)[C@H]([C@@H](C)O)NC(=O)[C@H](CCC)NC(=O)[C@H](Cc2ccc(O)cc2)NC(=O)[C@H](CCC(=O)O)NC1=O` [Compound 062] ([Mpa][Tle]Y[hLys]T[Trp(7-aza)][Nva]EY[Nva]TC-NH2; linker 1-12 via mXylylene), the IC50 (commonly the concentration that gives 50% inhibition) lay in the range of 100 to 1000 nM.
For the molecule `CC(C)[C@]1(C)NC(=O)[C@H](Cc2ccc(O)cc2)NC(=O)[C@H](CCC(=O)O)NC(=O)C(C)(C)NC(=O)[C@H](Cc2c[nH]c3ncccc23)NC(=O)[C@H]([C@@H](C)O)NC(=O)[C@H](CCCCN)NC(=O)[C@H](Cc2ccc(O)cc2)NC(=O)[C@H](C(C)(C)C)NC(=O)CCSCc2cccc(c2)CSC[C@@H](C(N)=O)NC(=O)[C@H]([C@@H](C)O)NC1=O` [Compound 063] ([Mpa][Tle]YKT[Trp(7-aza)][Aib]EY[αMeV]TC-NH2; linker 1-12 via mXylylene), the IC50 is 100 to 1000 nM.
On to `CCC[C@@H]1NC(=O)[C@H](Cc2c[nH]c3ncccc23)NC(=O)[C@H]([C@@H](C)O)NC(=O)[C@H](Cc2cnc[nH]2)NC(=O)[C@H](Cc2ccc(O)cc2)NC(=O)[C@H](C(C)(C)C)NC(=O)CCSCc2cccc(c2)CSC[C@@H](C(N)=O)NC(=O)[C@H]([C@@H](C)O)NC(=O)[C@H](CCO)NC(=O)[C@H](Cc2ccc(O)cc2)NC(=O)[C@H](CCC(=O)O)NC1=O` [Compound 072] ([Mpa][Tle]YHT[Trp(7-aza)][Nva]EY[hSer]TC-NH2; linker 1-12 via mXylylene), for which the concentration for half-maximal inhibition (IC50) was 100 to 1000 nM.
As to `CCC[C@@H]1NC(=O)[C@H](Cc2ccc(O)cc2)NC(=O)[C@H](CCC(=O)O)NC(=O)[C@H](CCC)NC(=O)[C@H](Cc2c[nH]c3ncccc23)NC(=O)[C@H]([C@@H](C)O)NC(=O)[C@H](Cc2cnc[nH]2)NC(=O)[C@H](Cc2ccc(O)cc2)NC(=O)[C@H](C(C)(C)C)NC(=O)CCSCc2cccc(c2)CSC[C@@H](C(N)=O)NC(=O)[C@H](CCO)NC1=O` [Compound 074] ([Mpa][Tle]YHT[Trp(7-aza)][Nva]EY[Nva][hSer]C-NH2; linker 1-12 via mXylylene), the IC50 was in the range of 100 to 1000 nM.
Turning to `CCC[C@@H]1NC(=O)[C@H](Cc2c[nH]c3ncccc23)NC(=O)[C@H]([C@@H](C)O)NC(=O)[C@H](Cc2c[nH]cn2)NC(=O)[C@H](Cc2ccc(O)cc2)NC(=O)[C@H](C(C)(C)C)NC(=O)CCSCc2cccc(c2)CSC[C@@H](C(N)=O)NC(=O)[C@H]([C@@H](C)O)NC(=O)[C@]2(C)CCCN2C(=O)[C@H](Cc2ccc(O)cc2)NC(=O)[C@H](CCC(=O)O)NC1=O` [Compound 075] ([Mpa][Tle]YHT[Trp(7-aza)][Nva]EY[αMeP]TC-NH2; linker 1-12 via mXylylene), the half-inhibitory concentration (IC50) was in the range of 100 to 1000 nM.
Turning to `CCC[C@@H]1NC(=O)[C@H](Cc2c[nH]c3ncccc23)NC(=O)[C@H]([C@@H](C)O)NC(=O)[C@H](Cc2cc[nH]c2)NC(=O)[C@H](Cc2ccc(O)cc2)NC(=O)[C@H](C(C)(C)C)NC(=O)CCSCc2cccc(c2)CSC[C@@H](C(N)=O)NC(=O)[C@]2(C)CCCN2C(=O)[C@H](Cc2ccc(O)cc2)NC(=O)[C@H](CCC(=O)O)NC1=O` [Compound 076] ([Mpa][Tle]Y[X7]T[Trp(7-aza)][Nva]EY[αMeP]C-NH2; linker 1-11 via mXylylene), the concentration for half-maximal inhibition (IC50) lay in the range of 100 to 1000 nM.
Regarding `CC(C)[C@]1(C)NC(=O)[C@H](Cc2ccc(O)cc2)NC(=O)[C@H](CCC(=O)O)NC(=O)C(C)(C)NC(=O)[C@H](Cc2c[nH]c3ncccc23)NC(=O)[C@H]([C@@H](C)O)NC(=O)[C@H](CCCCN)NC(=O)[C@H](Cc2ccc(O)cc2)NC(=O)[C@H](C(C)(C)C)NC(=O)CCSCc2cccc(c2)CSC[C@H](C(N)=O)NC(=O)[C@H]([C@@H](C)O)NC1=O` [Compound 077] ([Mpa][Tle]YKT[Trp(7-aza)][Aib]EY[αMeV]T[dC]-NH2; linker 1-12 via mXylylene), the half-maximal inhibitory concentration (IC50) was 100 to 1000 nM.
In the case of `CCC[C@@H]1NC(=O)[C@H](Cc2ccc(O)cc2)NC(=O)[C@H](CCC(=O)O)NC(=O)[C@H](CC(C)C)NC(=O)[C@H](Cc2c[nH]c3ncccc23)NC(=O)[C@H]([C@@H](C)O)NC(=O)[C@H](Cc2cnc[nH]2)NC(=O)[C@H](Cc2ccc(O)cc2)NC(=O)[C@H](C(C)(C)C)NC(=O)CCSCc2cccc(c2)CSC[C@@H](C(N)=O)NC(=O)[C@H]([C@@H](C)O)NC1=O` [Compound 078] ([Mpa][Tle]YHT[Trp(7-aza)]LEY[Nva]TC-NH2; linker 1-12 via mXylylene), the IC50 fell in the range of 100 to 1000 nM.
Take `CCC[C@@H]1NC(=O)[C@H](Cc2ccc(O)cc2)NC(=O)[C@H](CCC(=O)O)NC(=O)[C@H](CC2CCCCC2)NC(=O)[C@H](Cc2c[nH]c3ncccc23)NC(=O)[C@H]([C@@H](C)O)NC(=O)[C@H](Cc2cnc[nH]2)NC(=O)[C@H](Cc2ccc(O)cc2)NC(=O)[C@H](C(C)(C)C)NC(=O)CCSCc2cccc(c2)CSC[C@@H](C(N)=O)NC(=O)[C@H]([C@@H](C)O)NC1=O` [Compound 079] ([Mpa][Tle]YHT[Trp(7-aza)][Cha]EY[Nva]TC-NH2; linker 1-12 via mXylylene): the half-maximal inhibitory concentration (IC50) was in the range of 1000 to 12100 nM.
For `CCC[C@@H]1NC(=O)[C@H](Cc2nc3ccccc3s2)NC(=O)[C@H]([C@@H](C)O)NC(=O)[C@H](Cc2cnc[nH]2)NC(=O)[C@H](Cc2ccc(O)cc2)NC(=O)[C@H](C(C)(C)C)NC(=O)CCSCc2cccc(c2)CSC[C@@H](C(N)=O)NC(=O)[C@H]([C@@H](C)O)NC(=O)[C@H](CCC)NC(=O)[C@H](Cc2ccc(O)cc2)NC(=O)[C@H](CCC(=O)O)NC1=O` [Compound 084] ([Mpa][Tle]YHT[Ala(benzothiazol-2-yl)][Nva]EY[Nva]TC-NH2; linker 1-12 via mXylylene) the value was 100 to 1000 nM.
For `CCC[C@@H]1NC(=O)[C@H](Cc2c[nH]c3ncccc23)NC(=O)[C@H]([C@@H](C)O)NC(=O)[C@H](CNC(=N)N)NC(=O)[C@H](Cc2cc3cc(F)ccc3[nH]2)NC(=O)[C@H](Cc2cc3cc(F)ccc3[nH]2)NC(=O)[C@@H](NC(=O)[C@H](Cc2ccc(NC(=N)N)cc2)NC(C)=O)CSCc2cccc(c2)CSC[C@@H](C(N)=O)NC(=O)[C@H]([C@@H](C)O)NC(=O)[C@H](CCC)NC(=O)[C@H](Cc2ccc(O)cc2)NC(=O)[C@H](CCC(=O)O)NC1=O` [Compound 092] (Ac-[Phe(4-guanidino)]C[X4][X4][Agp]T[Trp(7-aza)][Nva]EY[Nva]TC-NH2; linker 2-13 via mXylylene), the IC50 fell in the range of 100 to 1000 nM.
Turning to `CCC[C@@H]1NC(=O)[C@H](Cc2c[nH]c3ncccc23)NC(=O)[C@H]([C@@H](C)O)NC(=O)[C@H](CNC(=N)N)NC(=O)[C@H](Cc2c[nH]c3ccc(F)cc23)NC(=O)[C@H](C(C)(C)C)NC(=O)[C@@H](NC(=O)[C@H](Cc2ccc(NC(=N)N)cc2)NC(C)=O)CSCc2cccc(c2)CSC[C@@H](C(N)=O)NC(=O)[C@H]([C@@H](C)O)NC(=O)[C@H](CCC)NC(=O)[C@H](Cc2ccc(O)cc2)NC(=O)[C@H](CCC(=O)O)NC1=O` [Compound 093] (Ac-[Phe(4-guanidino)]C[Tle][Trp(5-F)][Agp]T[Trp(7-aza)][Nva]EY[Nva]TC-NH2; linker 2-13 via mXylylene), the concentration for half-maximal inhibition (IC50) was in the range of 100 to 1000 nM.
